From PubChem BioAssay AID248 (DTP/NCI, 2004)
Where “and” joins values, the source holds several entries; their conditions need not be identical. Equal entries are not always repeated. Toxic doses and inconclusive results are not listed. Cut-off read from the data, not from the text of the source: active = T/C of 150% or more; inactive = T/C below 125%.

System: L1210 leukemia ip in BDF1 mice, survival T/C
Assay: NCI In Vivo Anticancer Drug Screen. Data for tumor model L1210 Leukemia (intraperitoneal) in B6D2F1 (BDF1) mice
Details: endpoint: mean survival time, higher = longer survival
Procedure, shortened: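 Tumor cells were implanted, animals were treated, and survival was followed. The result divides the treated measurement by the vehicle-control measurement.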

[1] = dose: 100.0 mg/kg/injection, schedule: Q01DX001 (ip), vehicle: saline
[2] = dose: 100.0 mg/kg/injection, schedule: Q01DX009 (ip), vehicle: Klucel (hydroxypropylcellulose) (HPC)
[3] = dose: 200.0 mg/kg/injection, schedule: Q01DX009 (ip), vehicle: Klucel (hydroxypropylcellulose) (HPC)
[4] = dose: 100.0 mg/kg/injection, schedule: Q04DX002 (ip), vehicle: saline with Tween-80
[5] = dose: 200.0 mg/kg/injection, schedule: Q04DX002 (ip), vehicle: saline with Tween-80
[6] = dose: 400.0 mg/kg/injection, schedule: Q04DX002 (ip), vehicle: saline with Tween-80
[7] = dose: 400.0 mg/kg/injection, schedule: Q01DX009 (ip), vehicle: Klucel (hydroxypropylcellulose) (HPC)
[8] = dose: 100.0 mg/kg/injection, schedule: Q04DX003 (ip), vehicle: saline with Tween-80
[9] = dose: 100.0 mg/kg/injection, schedule: Q04DX003 (ip), vehicle: saline
[10] = dose: 200.0 mg/kg/injection, schedule: Q04DX003 (ip), vehicle: saline with Tween-80
[11] = dose: 200.0 mg/kg/injection, schedule: Q04DX003 (ip), vehicle: saline
[12] = dose: 400.0 mg/kg/injection, schedule: Q04DX003 (ip), vehicle: saline with Tween-80

Measured: T/C

COc1ccc2cc3[n+](cc2c1OC)CCc1cc2c(cc1-3)OCO2
inactive: dose: 3.12 mg/kg/injection, schedule: Q01DX009 (ip), vehicle: Klucel (hydroxypropylcellulose) (HPC) 110 % of control | dose: 5.0 mg/kg/injection, schedule: Q01DX001 (ip), vehicle: saline 103 % of control | dose: 6.25 mg/kg/injection, schedule: Q01DX009 (ip), vehicle: Klucel (hydroxypropylcellulose) (HPC) 117 % of control | dose: 10.0 mg/kg/injection, schedule: Q01DX001 (ip), vehicle: saline 109 % of control | dose: 12.0 mg/kg/injection, schedule: Q01DX Z (ip), vehicle: saline 114 % of control | dose: 12.5 mg/kg/injection, schedule: Q01DX009 (ip), vehicle: Klucel (hydroxypropylcellulose) (HPC) 101 % of control and 106 % of control | dose: 20.0 mg/kg/injection, schedule: Q01DX001 (ip), vehicle: saline 109 % of control

N#Cc1ccc(NC(=O)NNC(=O)CCCC(=O)NNC(=O)Nc2ccc(C#N)cc2)cc1
inactive: dose: 50.0 mg/kg/injection, schedule: Q01DX001 (ip), vehicle: saline 95 % of control | [1] 97 % of control | dose: 200.0 mg/kg/injection, schedule: Q01DX001 (ip), vehicle: saline 101 % of control | dose: 400.0 mg/kg/injection, schedule: Q01DX001 (ip), vehicle: saline 95 % of control

O=c1[nH]cnc2nc(-c3ccc(Cl)cc3)c(-c3ccc(Cl)cc3)nc12
inactive: dose: 50.0 mg/kg/injection, schedule: Q01DX009 (ip), vehicle: Klucel (hydroxypropylcellulose) (HPC) 92 % of control | [2] 103 % of control | [3] 92 % of control

O=C(O)CC(NC(=O)COc1ccc(F)cc1)C(=O)O (centres undefined)
inactive: dose: 100.0 mg/kg/injection, schedule: Q04DX002 (ip), vehicle: Klucel (hydroxypropylcellulose) (HPC) 89 % of control | dose: 200.0 mg/kg/injection, schedule: Q04DX002 (ip), vehicle: Klucel (hydroxypropylcellulose) (HPC) 89 % of control | dose: 400.0 mg/kg/injection, schedule: Q04DX002 (ip), vehicle: Klucel (hydroxypropylcellulose) (HPC) 96 % of control

ClC(Cl)=C1SCCCS1
inactive: dose: 100.0 mg/kg/injection, schedule: Q01DX001 (ip), vehicle: saline with Tween-80 96 % of control | dose: 200.0 mg/kg/injection, schedule: Q01DX001 (ip), vehicle: saline with Tween-80 108 % of control

CCCS(=O)(=O)N1CCCCCC1
inactive: [4] 92 % of control | [5] 92 % of control | [6] 92 % of control

O=C(Nc1ccc(Cl)cc1)C(Cl)Cl
inactive: [2] 98 % of control | dose: 100.0 mg/kg/injection, schedule: Q04DX003 (ip), vehicle: Klucel (hydroxypropylcellulose) (HPC) 100 % of control | [3] 98 % of control | dose: 200.0 mg/kg/injection, schedule: Q04DX003 (ip), vehicle: Klucel (hydroxypropylcellulose) (HPC) 100 % of control | [7] 102 % of control | dose: 400.0 mg/kg/injection, schedule: Q04DX003 (ip), vehicle: Klucel (hydroxypropylcellulose) (HPC) 102 % of control

CC(=O)[O][Pb]([CH2]CC(C)C)([CH2]CC(C)C)[CH2]CC(C)C
inactive: dose: 0.78 mg/kg/injection, schedule: Q01DX009 (ip), vehicle: saline with Tween-80 98 % of control | dose: 0.78 mg/kg/injection, schedule: Q04DX002 (ip), vehicle: saline with Tween-80 95 % of control | dose: 1.56 mg/kg/injection, schedule: Q01DX009 (ip), vehicle: saline with Tween-80 97 % of control | dose: 1.56 mg/kg/injection, schedule: Q04DX002 (ip), vehicle: saline with Tween-80 92 % of control | dose: 3.12 mg/kg/injection, schedule: Q01DX009 (ip), vehicle: saline with Tween-80 95 % of control | dose: 3.12 mg/kg/injection, schedule: Q04DX002 (ip), vehicle: saline with Tween-80 92 % of control

[CH3][Sb]1([Cl])[CH2]CC[CH2]1
inactive: [8] 103 % of control | [9] 101 % of control | [10] 107 % of control | [11] 108 % of control

COc1ccc(-c2c(C(=O)O)cccc2[N+](=O)[O-])c(OC)c1
inactive: dose: 100.0 mg/kg/injection, schedule: Q01DX003 (ip), vehicle: Klucel (hydroxypropylcellulose) (HPC) 98 % of control | dose: 200.0 mg/kg/injection, schedule: Q01DX003 (ip), vehicle: Klucel (hydroxypropylcellulose) (HPC) 91 % of control | dose: 400.0 mg/kg/injection, schedule: Q01DX003 (ip), vehicle: Klucel (hydroxypropylcellulose) (HPC) 86 % of control

NC(=O)Cc1ccc(O)cc1
inactive: dose: 12.5 mg/kg/injection, schedule: Q04DX002 (ip), vehicle: saline with Tween-80 98 % of control | dose: 25.0 mg/kg/injection, schedule: Q04DX002 (ip), vehicle: saline with Tween-80 107 % of control | dose: 50.0 mg/kg/injection, schedule: Q04DX002 (ip), vehicle: saline with Tween-80 93 % of control and 105 % of control | dose: 50.0 mg/kg/injection, schedule: Q04DX002 (ip), vehicle: saline 113 % of control | [4] 98 % of control and 101 % of control | [5] 96 % of control and 98 % of control | dose: 200.0 mg/kg/injection, schedule: Q04DX002 (ip), vehicle: saline 113 % of control | [6] 101 % of control

O=C(O)CNc1cc(S(=O)(=O)O)cc2cc(S(=O)(=O)O)c(N=Nc3cc(S(=O)(=O)O)cc4cc(S(=O)(=O)O)cc(O)c34)c(O)c12
inactive: dose: 100.0 mg/kg/injection, schedule: Q01DX001 (ip), vehicle: other 101 % of control | dose: 200.0 mg/kg/injection, schedule: Q01DX001 (ip), vehicle: other 104 % of control

CC(=O)NCC(=O)c1ccc(Cl)cc1
inactive: dose: 100.0 mg/kg/injection, schedule: Q01DX009 (ip), vehicle: saline with Tween-80 103 % of control | [8] 102 % of control | dose: 200.0 mg/kg/injection, schedule: Q01DX009 (ip), vehicle: saline with Tween-80 104 % of control | [10] 102 % of control | dose: 400.0 mg/kg/injection, schedule: Q01DX009 (ip), vehicle: saline with Tween-80 121 % of control | [12] 96 % of control

COCc1nnc2ncnc(OC)c2n1
inactive: dose: 25.0 mg/kg/injection, schedule: Q01DX009 (ip), vehicle: saline 106 % of control | dose: 25.0 mg/kg/injection, schedule: Q04DX003 (ip), vehicle: saline 100 % of control | dose: 50.0 mg/kg/injection, schedule: Q01DX009 (ip), vehicle: saline 93 % of control | dose: 50.0 mg/kg/injection, schedule: Q04DX003 (ip), vehicle: saline 102 % of control | [1] 98 % of control | dose: 100.0 mg/kg/injection, schedule: Q01DX009 (ip), vehicle: saline 88 % of control | [9] 98 % of control

CSc1cc(N)nc(N)c1[N+](=O)[O-]
inactive: dose: 100.0 mg/kg/injection, schedule: Q01DX001 (ip), vehicle: Klucel (hydroxypropylcellulose) (HPC) 99 % of control | dose: 200.0 mg/kg/injection, schedule: Q01DX001 (ip), vehicle: Klucel (hydroxypropylcellulose) (HPC) 96 % of control | dose: 400.0 mg/kg/injection, schedule: Q01DX001 (ip), vehicle: Klucel (hydroxypropylcellulose) (HPC) 94 % of control

CC1=N/C(=C/c2ccccc2)C(=O)O1
inactive: [8] 97 % of control | [10] 92 % of control | [12] 98 % of control

Cc1ccc(Cl)c(NC(=O)COc2ccc(Cl)cc2)c1
inactive: [2] 93 % of control | [3] 94 % of control | [7] 94 % of control

O=C(NCCNC(=O)C(Cl)(Cl)Cl)C(Cl)(Cl)Cl
inactive: [2] 89 % of control | [3] 91 % of control | [7] 87 % of control

O=C(O)C1CCN1Cc1ccccc1 (centres undefined)
inactive: [9] 98 % of control | [11] 101 % of control | dose: 400.0 mg/kg/injection, schedule: Q04DX003 (ip), vehicle: saline 106 % of control
